Results published in ChEMBL document CHEMBL3885861, “Open TG-GATES”.

Organism: Rattus norvegicus
Experiment: Open TG-GATES - Regimen: Single
Format: toxicity, organism-based, Sprague-Dawley
Set-up: regimen Single, gender Male, age 6 weeks
Conditions: in vivo, po, 10 mg/kg, route gavage, dose level Low; for APTT / Bas / Eos / Fbg / Hb / Ht / Lym / MCH / MCHC / MCV / Mono / Neu / PT / Plat / RBC / Ret / WBC: tissue Blood; for A/G / ALP / ALT / AST / BUN / CRE / Ca / Cl / DBIL / GLC / IP / K / LDH / Na / PL / RALB / TBIL / TC / TG / TP / gamma-GTP: tissue Plasma

Compound: Cn1cc[nH]c1=S [METHIMAZOLE]
- TERMINAL_BW (3 h): 213.6 g
- APTT (3 h): 21.5 s
- Bas (3 h): 0%
- Eos (3 h): 0.4%
- Fbg (3 h): 291.6 mg/dL
- Hb (3 h): 13.5 g/dL
- Ht (3 h): 38.3%
- Lym (3 h): 81.6%
- MCH (3 h): 22.1 pg
- MCHC (3 h): 35.3%
- MCV (3 h): 62.6 fL
- Mono (3 h): 2%
- Neu (3 h): 15.2%
- PT (3 h): 15.4 s
- Plat (3 h): 123.9 x10_4/uL
- RBC (3 h): 611.8 x10_4/ul
- Ret (3 h): 8.4%
- WBC (3 h): 93.7 x10_2/uL
- A/G (3 h): 1.3
- ALP (3 h): 1742.6 IU/L
- ALT (3 h): 42 IU/L
- AST (3 h): 72.4 IU/L
- BUN (3 h): 13.8 mg/dL
- CRE (3 h): 0.1 mg/dL
- Ca (3 h): 10.6 mg/dL
- Cl (3 h): 106.6 meq/L
- DBIL (3 h): 0 mg/dL
- GLC (3 h): 179 mg/dL
- IP (3 h): 8.9 mg/dL
- K (3 h): 4.2 meq/L
- LDH (3 h): 206 IU/L
- Na (3 h): 141.2 meq/L
- PL (3 h): 141.4 mg/dL
- RALB (3 h): 3 g/dL
- TBIL (3 h): 0.006 mg/dL
- TC (3 h): 77 mg/dL
- TG (3 h): 74.4 mg/dL
- TP (3 h): 5.4 g/dL
- gamma-GTP (3 h): 1.2 IU/L
- TERMINAL_BW (6 h): 213.5 g
- APTT (6 h): 20.7 s
- Bas (6 h): 0%
- Eos (6 h): 1%
- Fbg (6 h): 279.8 mg/dL
- Hb (6 h): 13.6 g/dL
- Ht (6 h): 38.5%
- Lym (6 h): 78.2%
- MCH (6 h): 21.7 pg
- MCHC (6 h): 35.2%
- MCV (6 h): 61.8 fL
- Mono (6 h): 2.2%
- Neu (6 h): 18%
- PT (6 h): 16.1 s
- Plat (6 h): 103 x10_4/uL
- RBC (6 h): 624.6 x10_4/ul
- Ret (6 h): 8.8%
- WBC (6 h): 85.4 x10_2/uL
- A/G (6 h): 1.2
- ALP (6 h): 1761.8 IU/L
- ALT (6 h): 44.2 IU/L
- AST (6 h): 75.8 IU/L
- BUN (6 h): 10.4 mg/dL
- CRE (6 h): 0.1 mg/dL
- Ca (6 h): 10.6 mg/dL
- Cl (6 h): 106.4 meq/L
- DBIL (6 h): 0 mg/dL
- GLC (6 h): 185.2 mg/dL
- IP (6 h): 9.3 mg/dL
- K (6 h): 4.3 meq/L
- LDH (6 h): 182.4 IU/L
- Na (6 h): 141 meq/L
- PL (6 h): 124.8 mg/dL
- RALB (6 h): 2.8 g/dL
- TBIL (6 h): 0.01 mg/dL
- TC (6 h): 71.2 mg/dL
- TG (6 h): 70.6 mg/dL
- TP (6 h): 5.2 g/dL
- gamma-GTP (6 h): 1 IU/L
- TERMINAL_BW (9 h): 199.1 g
- APTT (9 h): 21.1 s
- Bas (9 h): 0%
- Eos (9 h): 0.8%
- Fbg (9 h): 299.4 mg/dL
- Hb (9 h): 13.2 g/dL
- Ht (9 h): 37.7%
- Lym (9 h): 75.6%
- MCH (9 h): 21.3 pg
- MCHC (9 h): 35.2%
- MCV (9 h): 60.6 fL
- Mono (9 h): 1.6%
- Neu (9 h): 21%
- PT (9 h): 16.4 s
- Plat (9 h): 124.5 x10_4/uL
- RBC (9 h): 622.2 x10_4/ul
- Ret (9 h): 7.7%
- WBC (9 h): 78.9 x10_2/uL
- A/G (9 h): 1.2
- ALP (9 h): 1423.4 IU/L
- ALT (9 h): 38.4 IU/L
- AST (9 h): 71.2 IU/L
- BUN (9 h): 10.8 mg/dL
- CRE (9 h): 0.1 mg/dL
- Ca (9 h): 10.5 mg/dL
- Cl (9 h): 106.4 meq/L
- DBIL (9 h): 0.002 mg/dL
- GLC (9 h): 178.2 mg/dL
- IP (9 h): 9.6 mg/dL
- K (9 h): 4.5 meq/L
- LDH (9 h): 154.8 IU/L
- Na (9 h): 140.6 meq/L
- PL (9 h): 133.2 mg/dL
- RALB (9 h): 3 g/dL
- TBIL (9 h): 0.01 mg/dL
- TC (9 h): 76.8 mg/dL
- TG (9 h): 65 mg/dL
- TP (9 h): 5.5 g/dL
- gamma-GTP (9 h): 1 IU/L
- TERMINAL_BW (24 h): 223.9 g
- APTT (24 h): 20.3 s
- Bas (24 h): 0%
- Eos (24 h): 0.8%
- Fbg (24 h): 307.8 mg/dL
- Hb (24 h): 14 g/dL
- Ht (24 h): 39.8%
- Lym (24 h): 79.8%
- MCH (24 h): 21.7 pg
- MCHC (24 h): 35.2%
- MCV (24 h): 61.9 fL
- Mono (24 h): 2.4%
- Neu (24 h): 16.4%
- PT (24 h): 15.6 s
- Plat (24 h): 96.9 x10_4/uL
- RBC (24 h): 643.8 x10_4/ul
- Ret (24 h): 7.2%
- WBC (24 h): 79.8 x10_2/uL
- A/G (24 h): 1.3
- ALP (24 h): 2168.2 IU/L
- ALT (24 h): 55.2 IU/L
- AST (24 h): 75 IU/L
- BUN (24 h): 15.6 mg/dL
- CRE (24 h): 0.1 mg/dL
- Ca (24 h): 11 mg/dL
- Cl (24 h): 106.2 meq/L
- DBIL (24 h): 0 mg/dL
- GLC (24 h): 180.6 mg/dL
- IP (24 h): 6.9 mg/dL
- K (24 h): 4.2 meq/L
- LDH (24 h): 175 IU/L
- Na (24 h): 142.2 meq/L
- PL (24 h): 169.8 mg/dL
- RALB (24 h): 3.1 g/dL
- TBIL (24 h): 0.01 mg/dL
- TC (24 h): 85.8 mg/dL
- TG (24 h): 145.4 mg/dL
- TP (24 h): 5.5 g/dL
- gamma-GTP (24 h): 1 IU/L
